Results published in US8193361B2, “I-alkynyl 2-aryloxyalkylamides and their use as fungicides” (Syngenta Limited, priority 2004, dated 2012).

Key:
[1] = system: Puccinia recondita f. sp. tritici; assay: Leaf disk assay, Puccinia recondita f. sp. tritici (wheat brown rust), preventive; type: in vivo; details: 200 ppm; wheat leaf segments; assessed nine days after inoculation
Experimental: The compounds were tested in a leaf disk assay, with methods described below. The test compounds were dissolved in DMSO and diluted into water to 200 ppm. In the case of the test on Pythium ultimum, they were dissolved in DMSO and diluted into water to 20 ppm.
Erysiphe graminis f. sp. hordei (barley powdery mildew): Barley leaf segments were placed on agar in a 24-well plate and sprayed with a solution of the test compound. After allowing to dry completely, for between 12 and 24 hours, the leaf disks were inoculated with a spore suspension of the fungus. After appropriate incubation the activity of a compound was assessed four days after inoculation as preventive fungicidal activity. Erysiphe graminis f. sp. tritici (wheat powdery mildew): Wheat leaf segments were placed on agar in a 24-well plate and sprayed with a solution of the test compound. After allowing to dry completely, for between 12 and 24 hours, the leaf disks were inoculated with a spore suspension of the fungus. After appropriate incubation the activity of a compound was assessed four days after inoculation as preventive fungicidal activity. […] After appropriate incubation the activity of a compound was assessed nine days after inoculation as preventive fungicidal activity. […] After appropriate incubation the activity of a compound was assessed four days after inoculation as preventive fungicidal activity.

Pyricularia oryzae = type: in vivo; details: 200 ppm; rice leaf segments; assessed four days after inoculation

Row | Structure (SMILES) | control of fungal infection [1] | control of fungal infection (Pyricularia oryzae)
1 | C#CC(C)(C)NC(=O)C(Oc1ccc2oc3ccccc3c2c1)SC (centres unmarked) [1 (16)] | at least 60% | 
2 | CC#CC(C)(C)NC(=O)C(Oc1ccc2oc3ccccc3c2c1)SC (centres unmarked) [4 (16), 2-(dibenzofuranyl-2-oxy)-2-methylthio-N-(2-methylpent-3-yn-2-yl)acetamide] |  | at least 60%
